The structures appear in SMILES notation. Structures can show the parent of a compound that is named as a salt.

In assay [1] the test system is pNL4-3 SP1-V7A. Kind of assay: CA-SP1 accumulation assay, SP1-V7A derivative. To be noted: HeLa or 293T cells; for % CA-SP1 Accumulation 100 nM SP1 V7A: 100 nM compound; for % CA-SP1 Accumulation 10 nM SP1 V7A: 10 nM compound. The class given is cell-based, HIV-1. On the procedure:
(§1) Cell culture, plasmids and transfections. The MT-4 T-cell line was maintained in RPMI-1640 medium supplemented with 10% (vol/vol) fetal bovine serum (FBS), 2 mM glutamine, 100 U/mL penicillin and 100 μg/mL streptomycin at 37° C. in a humidified 5% CO2 atmosphere. HeLa and 293T cells were maintained in Dulbecco's modified Eagle's medium (DMEM) supplemented with 5% (vol/vol) FBS, 2 mM glutamine, 100 U/mL penicillin and 100 μg/mL streptomycin. Molecular clones used in this study were WT pNL4-3 and the derivative encoding a Val-to-Ala mutation at SP1 residue 7, referred to as SP1-V7A. The MT-4 T-cell line was transfected the DEAE/dextran procedure; HeLa and 293T cells were transfected with linear polyethylenimine (L-PEI) or Lipofectamine 2000 (Invitrogen) as recommended by the supplier.
(§2) CA-SP1 accumulation assay. For CA-SP1 accumulation assays, HeLa or 293T cells were transfected with WT pNL4-3 or the SP1-V7A derivative. At 24 h post-transfection, cells were starved in Met/Cys-free medium for 30 min and metabolically labeled with [^35S]Met/Cys-Pro-mix (Amersham) for 2-3 h. Maturation inhibitors were maintained in the cultures throughout the transfection and labeling period. Viruses were collected by ultracentrifugation at 99,000×g for 45-60 min. Virus pellets were resuspended in Triton X-100 lysis buffer [300 mM NaCl, 50 mM Tris-HCl (pH 7.5), 0.5% Triton X-100, 10 mM iodoacetamide, and protease inhibitor cocktail tablets (Roche)]. CA and CA-SP1 proteins were separated on 13.5-15% polyacrylamide gels by SDS-polyacrylamide gel electrophoresis, exposed to a phosphorimager plate (Fuji) and quantified by Quantity One software (Bio-Rad).

In assay [2] the test system is WT pNL4-3. Kind of assay: CA-SP1 accumulation assay, WT NL4-3. Type of assay: cell-based, HIV-1. Particulars: HeLa or 293T cells; for % CA-SP1 Accumulation 100 nM NL4-3: 100 nM compound; for % CA-SP1 Accumulation 10 nM NL4-3: 10 nM compound. As to the method: as §1, §2

`C=C(C)[C@@H]1CC[C@]2(CCNCCCN3CCN(CCOC)CC3)CC[C@]3(C)[C@H](CC[C@@H]4[C@@]5(C)CC[C@H](OC(=O)CC(C)(C)CC(=O)O)C(C)(C)[C@@H]5CC[C@]43C)[C@@H]12` [Compound 51e, (3β)-17-[2-[[3-[4-(2-Methoxyethyl)piperazin-1-yl]propyl]amino]ethyl]-28-norlup-20(29)-en-3-ol, 3-(Hydrogen 3,3-Dimethylpentanedioate)]: in assay [1], the “% CA-SP1 Accumulation 100 nM SP1 V7A” value was 23.1 (3) %. In assay [2], the “% CA-SP1 Accumulation 100 nM NL4-3” value is listed as 70.4 (3) %.
The corresponding values for `CN(C)CCCCNCC[C@]12CC[C@@H](C3(C)CC3)[C@@H]1[C@H]1CC[C@@H]3[C@@]4(C)CC[C@H](OC(=O)CC(C)(C)C(=O)O)C(C)(C)[C@@H]4CC[C@@]3(C)[C@]1(C)CC2` [Compound 51j, (3β)-17-[2-[[(4-Dimethylamino)butyl]amino]ethyl]-20,29-methano-28-norlupan-3-ol, 3-(1-Hydrogen 2,2-Dimethylbutanedioate)] are 6.4% and 53.6%.
In the case of `C=C(C)[C@@H]1CC[C@]2(CCCNCCCN3CCCC3)CC[C@]3(C)[C@H](CC[C@@H]4[C@@]5(C)CC[C@H](OC(=O)CC(C)(C)C(=O)O)C(C)(C)[C@@H]5CC[C@]43C)[C@@H]12` [Compound 51aa, (3β)-17-[3-[[3-(1-Pyrrolidinyl)propyl]amino]propyl]-28-norlup-20(29)-en-3-ol, 3-(1-Hydrogen 2,2-Dimethylbutanedioate) Sulfate], in assay [1], the “% CA-SP1 Accumulation 10 nM SP1 V7A” value is 5.3% and the “% CA-SP1 Accumulation 100 nM SP1 V7A” value was 14.4%. For the same compound, in assay [2], the “% CA-SP1 Accumulation 10 nM NL4-3” value is listed as 12.5% and the “% CA-SP1 Accumulation 100 nM NL4-3” value stood at 45.2%.
In the case of `CC(C)(CC(=O)O[C@H]1CC[C@]2(C)[C@H]3CC[C@@H]4[C@H]5[C@H](C6(C)CC6)CC[C@]5(CCNCCN5CCCC5)CC[C@@]4(C)[C@]3(C)CC[C@H]2C1(C)C)C(=O)O` [Compound 51h, (3β)-17-[2-[[2-(1-Pyrrolidinyl)ethyl]amino]ethyl]-20,29-methano-28-norlupan-3-ol, 3-(1-Hydrogen 2,2-Dimethylbutanedioate)], the “% CA-SP1 Accumulation 100 nM SP1 V7A” value in assay [1] came to 20.1%. Moreover, in assay [2], the “% CA-SP1 Accumulation 100 nM NL4-3” value is recorded as 70.1%.
For the compound `C=C(C)[C@@H]1CC[C@]2(CCNCCN3CCN(Cc4ccccn4)CC3)CC[C@]3(C)[C@H](CC[C@@H]4[C@@]5(C)CC[C@H](OC(=O)CC(C)(C)C(=O)O)C(C)(C)[C@@H]5CC[C@]43C)[C@@H]12` [Compound 51u, (3β)-17-[2-[[2-[4-(2-Pyridinylmethyl)piperazin-1-yl]ethyl]amino]ethyl]-28-norlup-20(29)-en-3-ol, 3-(1-Hydrogen 2,2-Dimethylbutanedioate)], the “% CA-SP1 Accumulation 10 nM SP1 V7A” value in assay [1] was 30.2 (2) %. Further, the “% CA-SP1 Accumulation 10 nM NL4-3” value in assay [2] is 53.8%.
As to `C=C(C)[C@@H]1CC[C@]2(CCCNCCN3CCS(=O)(=O)CC3)CC[C@]3(C)[C@H](CC[C@@H]4[C@@]5(C)CC[C@H](OC(=O)CC(C)(C)C(=O)O)C(C)(C)[C@@H]5CC[C@]43C)[C@@H]12` [Compound 51dd, (3β)-17-[[[3-[2-(1,1-Dioxothiomorpholin-4-yl)]Ethyl]Amino]Propyl]-28-norlup-20(29)-en-3-ol, 3-(1-Hydrogen 2,2-Dimethylbutanedioate) Sulfate], in assay [1], the “% CA-SP1 Accumulation 10 nM SP1 V7A” value is reported as 5.9% and the “% CA-SP1 Accumulation 100 nM SP1 V7A” value is 7.3%. In addition, in assay [2], the “% CA-SP1 Accumulation 10 nM NL4-3” value is reported as 8.2% and the “% CA-SP1 Accumulation 100 nM NL4-3” value came to 9.7%.
With `C=C(C)[C@@H]1CC[C@]2(CCNCCCN3CCN(CCO)CC3)CC[C@]3(C)[C@H](CC[C@@H]4[C@@]5(C)CC[C@H](OC(=O)CC(C)(C)CC(=O)O)C(C)(C)[C@@H]5CC[C@]43C)[C@@H]12` [Compound 51d, (3β)-17-[2-[[3-[4-(2-Hydroxyethyl)piperazin-1-yl]propyl]amino]ethyl]-28-norlup-20(29)-en-3-ol, 3-(Hydrogen 3,3-Dimethylpentanedioate)], the “% CA-SP1 Accumulation 100 nM SP1 V7A” value in assay [1] is reported as 20.4 (3) %. Moreover, the “% CA-SP1 Accumulation 100 nM NL4-3” value in assay [2] is recorded as 71.6 (3) %.
On the same counts, the results for `C=C(C)[C@@H]1CC[C@]2(CCNCCCN3CCCC3=O)CC[C@]3(C)[C@H](CC[C@@H]4[C@@]5(C)CC[C@H](OC(=O)CC(C)(C)CC(=O)O)C(C)(C)[C@@H]5CC[C@]43C)[C@@H]12` [Compound 51a, (3β)-17-[2-[[3-(2-Oxopyrrolidin-1-yl)propyl]amino]ethyl]-28-norlup-20(29)-en-3-ol, 3-(Hydrogen 3,3-Dimethylpentanedioate)] are 18.0% and 62.0%.
In the case of `C=C(C)[C@@H]1CC[C@]2(CCNCCC(=O)N3CCN(C)CC3)CC[C@]3(C)[C@H](CC[C@@H]4[C@@]5(C)CC[C@H](OC(=O)CC(C)(C)CC(=O)O)C(C)(C)[C@@H]5CC[C@]43C)[C@@H]12` [Compound 51b, (3β)-17-[2-[[3-(4-Methylpiperazin-1-yl)-3-oxopropyl]amino]ethyl]-28-norlup-20(29)-en-3-ol, 3-(Hydrogen 3,3-Dimethylpentanedioate)], in assay [1], the “% CA-SP1 Accumulation 100 nM SP1 V7A” value was determined as 21.0%. Moreover, in assay [2], the “% CA-SP1 Accumulation 100 nM NL4-3” value worked out at 58.0%.
Consider `C=C(C)[C@@H]1CC[C@]2(CNCCN3CCS(=O)(=O)CC3)CC[C@]3(C)[C@H](CC[C@@H]4[C@@]5(C)CC[C@H](OC(=O)CC(C)(C)C(=O)O)C(C)(C)[C@@H]5CC[C@]43C)[C@@H]12` [Compound 51y, (3β)-28-[[2-[(1,1-Dioxothiomorpholin-4-yl)]ethyl]amino]lup-20(29)-en-3-ol, 3-(1-Hydrogen 2,2-Dimethylbutanedioate) Sulfate], for which, in assay [1], the “% CA-SP1 Accumulation 10 nM SP1 V7A” value worked out at 28.5% and the “% CA-SP1 Accumulation 100 nM SP1 V7A” value stood at 28.1%. Further, in assay [2], the “% CA-SP1 Accumulation 10 nM NL4-3” value was determined as 56.4% and the “% CA-SP1 Accumulation 100 nM NL4-3” value is reported as 69.4%.
As to `C=C(C)[C@@H]1CC[C@]2(CCNCCCN3CCN(S(C)(=O)=O)CC3)CC[C@]3(C)[C@H](CC[C@@H]4[C@@]5(C)CC[C@H](OC(=O)CC(C)(C)CC(=O)O)C(C)(C)[C@@H]5CC[C@]43C)[C@@H]12` [Compound 51c, (3β)-17-[2-[[3-[4-(Methylsulfonyl)piperazin-1-yl]propyl]amino]ethyl]-28-norlup-20(29)-en-3-ol, 3-(Hydrogen 3,3-Dimethylpentanedioate)], the “% CA-SP1 Accumulation 100 nM SP1 V7A” value in assay [1] is 29.2 (3) %. Moreover, in assay [2], the “% CA-SP1 Accumulation 100 nM NL4-3” value is 72.9 (3) %.
In the case of `C=C(C)[C@@H]1CC[C@]2(CCNCCN3CCN(Cc4ccc(F)cc4)CC3)CC[C@]3(C)[C@H](CC[C@@H]4[C@@]5(C)CC[C@H](OC(=O)CC(C)(C)C(=O)O)C(C)(C)[C@@H]5CC[C@]43C)[C@@H]12` [Compound 51l, (3β)-17-[2-[[2-[4-(4-Fluorophenylmethyl)piperazin-1-yl]ethyl]amino]ethyl]-28-norlup-20(29)-en-3-ol, 3-(1-Hydrogen 2,2-Dimethylbutanedioate)], in assay [1], the “% CA-SP1 Accumulation 10 nM SP1 V7A” value is reported as 38.2 (3) %. In addition, the “% CA-SP1 Accumulation 10 nM NL4-3” value in assay [2] worked out at 48.9%.
As for `CCN1CCC(NCC[C@]23CC[C@@H](C4(C)CC4)[C@@H]2[C@H]2CC[C@@H]4[C@@]5(C)CC[C@H](OC(=O)CC(C)(C)C(=O)O)C(C)(C)[C@@H]5CC[C@@]4(C)[C@]2(C)CC3)CC1` [Compound 51k], the “% CA-SP1 Accumulation 100 nM SP1 V7A” value in assay [1] is 27.3 (2) %. Besides, the “% CA-SP1 Accumulation 100 nM NL4-3” value in assay [2] is 55.0 (2) %.
Regarding `C=C(C)[C@@H]1CC[C@]2(CCNCCN3CCN(c4ccccc4)CC3)CC[C@]3(C)[C@H](CC[C@@H]4[C@@]5(C)CC[C@H](OC(=O)CC(C)(C)C(=O)O)C(C)(C)[C@@H]5CC[C@]43C)[C@@H]12` [Compound 51p, (3β)-17-[2-[[2-(4-Phenylpiperazin-1-yl)ethyl]amino]ethyl]-28-norlup-20(29)-en-3-ol, 3-(1-Hydrogen 2,2-Dimethylbutanedioate)], the “% CA-SP1 Accumulation 10 nM SP1 V7A” value in assay [1] is given as 22.5%. In assay [2], the “% CA-SP1 Accumulation 10 nM NL4-3” value is 60.0%.
On the same counts, the results for `C=C(C)[C@@H]1CC[C@]2(CCNCCN3CCC(O)CC3)CC[C@]3(C)[C@H](CC[C@@H]4[C@@]5(C)CC[C@H](OC(=O)CC(C)(C)C(=O)O)C(C)(C)[C@@H]5CC[C@]43C)[C@@H]12` [Compound 51ii, (3β)-17-[2-[[2-(4-Hydroxypiperidin-1-yl)ethyl]amino]ethyl]-28-norlup-20(29)-en-3-ol, 3-(1-Hydrogen 2,2-Dimethylbutanedioate)] are 29.5 (3) % and 70.1%.
